Experiments:
Heliothis virescens = experiment: Insecticidal test against Heliothis virescens; assay type: in vivo; settings: 168 h, 100 ppm water dilution, 0.2 ml on surface of artificial diet, second-instar larvae, after 7 days
Protocol: A water dilution (100 ppm) of a test compound formulation obtained according to Formulation Example 1 was added dropwise at a volume of 0.2 ml and uniformly spread over the surface of an artificial diet having a weight of 3 g, which had been prepared in a 30 ml plastic cup. After air drying, one second-instar larva of Heliothis virescens was set free in each cup. Ten larvae were used for each treatment. After 7 days, the mortality of the larvae was determined.

Helicoverpa armigera = experiment: Insecticidal test against Helicoverpa armigera; assay type: in vivo; settings: 120 h, 100 ppm water dilution, cotton leaf fragment immersed 10 seconds, third-instar larvae, after 5 days
Protocol: A cotton leaf fragment (diameter, 5 cm) was immersed for 10 seconds Lin a water dilution (100 ppm) of a test compound formulation obtained according to Formulation Example 1. This fragment was taken out from the dilution, air dried, and placed in a polyethylene cup having a diameter of 5.5 cm. One third-instar larva of Helicoverpa armigera was set free in each cup. Ten larvae were used for each treatment. After 5 days, the mortality of the larvae was determined.

Musca domestica = experiment: Insecticidal test against Musca domestica; assay type: in vivo; settings: 24 h, 500 ppm water dilution, 0.7 ml on filter paper with sucrose, female adults, after 1 day, read-out: mortality
Protocol: In the bottom of a polyethylene cup having a diameter of 5.5 cm was placed a piece of filter paper having the same size. A 200-fold water dilution (500 ppm) of a test compound formulation obtained according to Formulation Example 1 was added dropwise at a volume of 0.7 ml on the filter paper, and about 30 mg of sucrose as a diet was uniformly placed thereon. Ten female adults of houseflies (Musca domestica) were set free in the cup, and the cup was kept covered. After 1 day, the survival of the adults was determined to determine the mortality.

Plutella xylostella = experiment: Insecticidal test against Plutella xylostella; assay type: in vivo; settings: 96 h, 50 ppm water dilution sprayed over potted cabbages, 25 ml per pot, third-instar larvae, after 4 days, read-out: mortality
Protocol: To a water dilution (50 ppm) of a test compound formulation obtained according to Formulation Example 1 was added a spreading agent (New RINOU available from Nihon Noyaku K.K.) at a dilution ratio of 3000-fold. The dilution was sprayed over potted cabbages at the four to five leaf stage at a volume of 25 ml per pot. After the treated plants were air dried, ten third-instar larvae of Plutella xylostella were set free on each pot. After 4 days, the mortality was determined.

Cydia pomonella = experiment: Insecticidal test against Cydia pomonella; assay type: in vivo; settings: 168 h, 100 ppm water dilution, 0.2 ml on surface of artificial diet, eggs just before hatching, after 7 days
Protocol: A water dilution (100 ppm) of a test compound formulation obtained according to Formulation Example 1 was added dropwise at a volume of 0.2 ml and spread over the surface of an artificial diet having a weight of 3 g, which had been prepared in a 30 ml polyethylene cup. After air drying, placed in the cup was a piece of wax paper (about 2.5 cm square) having about 20 eggs which had been laid by Cydia pomonella and were just before hatching. Four pieces of such wax paper were used for each treatment. After 7 days, the mortality of the larvae was determined.

SMILES	melting point [°C]	mortality at 100 µg/mL (Helicoverpa armigera) [%]	further results
CCCON=C(C)c1ccc(COc2c(Cl)cc(OCC=C(Cl)Cl)cc2Cl)cc1 [(346), 4′-(2,6-dichloro-4-(3,3-dichloro-2-propenyloxy)phenoxymethyl)acetophenone O-propyloxime]	–	–	mortality at 100 µg/mL (Heliothis virescens): ≥ 80%
CC(C)(C)ON=CCOCCCCCOc1c(Cl)cc(OCC=C(Cl)Cl)cc1Cl [(14), 5-(2,6-dichloro-4-(3,3-dichloro-2-propenyloxy)phenoxy)pentyloxyacetaldehyde O-tert-butyloxime]	–	≥ 80	–
CC(=NOCCCCCOc1c(Cl)cc(OCC=C(Cl)Cl)cc1Cl)C(C)(C)C [(559), 3,3-dimethyl-2-butanone O-(5-(2,6-dichloro-4-(3,3-dichloro-2-propenyloxy)phenoxy)pentyl)oxime]	–	–	mortality at 100 µg/mL (Heliothis virescens): ≥ 80%
CC(C)(C)C=NOCCCCCOc1c(Cl)cc(OCC=C(Cl)Cl)cc1Cl [(545), trimethylacetaldehyde O-(5-(2,6-dichloro-4-(3,3-dichloro-2-propenyloxy)phenoxy)pentyl)oxime]	–	≥ 80	mortality at 500 µg/mL (Musca domestica): ≥ 80%
FC(F)(F)c1ccc(C=NOCCCCOc2c(Cl)cc(OCC=C(Cl)Cl)cc2Cl)cc1 [(529), 4-(trifluoromethyl)benzaldehyde O-(4-(2,6-dichloro-4-(3,3-dichloro-2-propenyloxy)phenoxy)butyl)oxime]	–	≥ 80	–
C=CCON=Cc1ccc(OCCCOc2c(Cl)cc(OCC=C(Cl)Cl)cc2Cl)cc1 [(342), 4-(3-(2,6-dichloro-4-(3,3-dichloro-2-propenyloxy)phenoxy)propyloxy)benzaldehyde O-allyloxime]	–	≥ 80	–
ClC(Cl)=CCOc1cc(Cl)c(OCCCCCOCC=NOCC(Cl)(Cl)Cl)c(Cl)c1 [(160), 5-(2,6-dichloro-4-(3,3-dichloro-2-propenyloxy)phenoxy)pentyloxyacetaldehyde O-(2,2,2-trichloroethyl)oxime]	–	–	mortality at 100 µg/mL (Heliothis virescens): ≥ 80%
ClC(Cl)=CCON=Cc1ccc(OCCCOc2c(Cl)cc(OCC=C(Cl)Cl)cc2Cl)cc1 [(283), 4-(3-(2,6-dichloro-4-(3,3-dichloro-2-propenyloxy)phenoxy)propyloxy)benzaldehyde O-(3,3-dichloro-2-propenyl)oxime]	–	≥ 80	mortality at 50 µg/mL (Plutella xylostella): ≥ 80%
ClC(Cl)=CCON=Cc1ccc(CCOc2c(Cl)cc(OCC=C(Cl)Cl)cc2Cl)cc1 [(358), 4-(2-(2,6-dichloro-4-(3,3-dichloro-2-propenyloxy)phenoxy)ethyl)benzaldehyde O-(3,3-dichloro-2-propenyl)oxime]	–	≥ 80	–
CCON=Cc1ccc(OCCCOc2c(Cl)cc(OCC=C(Cl)Cl)cc2Cl)cc1 [(288), 4-(3-(2,6-dichloro-4-(3,3-dichloro-2-propenyloxy)phenoxy)propyloxy)benzaldehyde O-ethyloxime]	–	≥ 80	–
CCON=C(C)c1ccc(OCCCOc2c(Cl)cc(OCC=C(Cl)Cl)cc2Cl)cc1 [(293), 4′-(3-(2,6-dichloro-4-(3,3-dichloro-2-propenyloxy)phenoxy)propyloxy)acetophenone O-ethyloxime]	–	≥ 80	mortality at 100 µg/mL (Cydia pomonella): ≥ 80%
C=CCON=Cc1ccc(COc2c(Cl)cc(OCC=C(Cl)Cl)cc2Cl)cc1 [(312), 4-(2,6-dichloro-4-(3,3-dichloro-2-propenyloxy)phenoxymethyl)benzaldehyde O-(2-propenyl)oxime]	–	≥ 80	–
ClC(Cl)=CCOc1cc(Cl)c(OCCCCOCC=NOCc2ccccc2)c(Cl)c1 [(5), 4-(2,6-dichloro-4-(3,3-dichloro-2-propenyloxy)phenoxy)butyloxyacetaldehyde O-benzyloxime]	–	–	mortality at 100 µg/mL (Heliothis virescens): ≥ 80%
ClC(Cl)=CCON=Cc1ccc(COc2c(Cl)cc(OCC=C(Cl)Cl)cc2Cl)cc1 [(279), 4-(2,6-dichloro-4-(3,3-dichloro-2-propenyloxy)phenoxymethyl)benzaldehyde O-(3,3-dichloro-2-propenyl)oxime]	–	≥ 80	mortality at 50 µg/mL (Plutella xylostella): ≥ 80%; mortality at 100 µg/mL (Cydia pomonella): ≥ 80%
ClC(Cl)=CCOc1cc(Cl)c(OCCCCOCC=NOCC=C(Br)Br)c(Cl)c1 [(3), 4-(2,6-dichloro-4-(3,3-dichloro-2-propenyloxy)phenoxy)butyloxyacetaldehyde O-(3,3-dibromo-2-propenyl)oxime]	–	–	mortality at 100 µg/mL (Heliothis virescens): ≥ 80%

Second part, led by results:

melting point [°C]	SMILES	mortality at 100 µg/mL (Helicoverpa armigera) [%]	further results
71.2	N#Cc1ccc(C=NOCCCCOc2c(Cl)cc(OCC=C(Cl)Cl)cc2Cl)cc1 [(691), 4-cyanobenzaldehyde O-(4-(2,6-dichloro-4-(3,3-dichloro-2-propenyloxy)phenoxy)butyl)oxime]	–	–
121	CC(=NO)c1ccc(OCCOc2c(Cl)cc(OCC=C(Cl)Cl)cc2Cl)cc1 [(337), 4′-(2-(2,6-dichloro-4-(3,3-dichloro-2-propenyloxy)phenoxy)-ethoxy)acetophenone oxime]	–	–
56.4	CC(=NOC(C)(C)C)c1ccc(OCCCCOc2c(Cl)cc(OCC=C(Cl)Cl)cc2Cl)cc1 [(298), 4′-(4-(2,6-dichloro-4-(3,3-dichloro-2-propenyloxy)phenoxy)butyloxy)acetophenone O-tert-butyloxime]	–	–
90.8	ClC(Cl)=CCOc1cc(Cl)c(OCCOc2ccc(C=NOCC=C(Br)Br)cc2)c(Cl)c1 [(282), 4-(2-(2,6-dichloro-4-(3,3-dichloro-2-propenyloxy)phenoxy)-ethoxy)benzaldehyde O-(3,3-dibromo-2-propenyl)oxime]	–	–
70.3	ClC(Cl)=CCOc1cc(Cl)c(OCc2ccc(C=NOCc3ccccc3)cc2)c(Cl)c1 [(313), 4-(2,6-dichloro-4-(3,3-dichloro-2-propenyloxy)phenoxymethyl)benzaldehyde O-benzyloxime]	–	–
67.7	CC(=NOCCCCCOc1c(Cl)cc(OCC=C(Cl)Cl)cc1Cl)c1ccc(Cl)nc1 [(569), 6-chloro-3-pyridyl methyl ketone O-(5-(2,6-dichloro-4-(3,3-dichloro-2-propenyloxy)phenoxy)pentyl)oxime]	–	–
88.2	ClC(Cl)=CCON=Cc1ccc(COc2c(Cl)cc(OCC=C(Br)Br)cc2Cl)cc1 [(280), 4-(2,6-dichloro-4-(3,3-dibromo-2-propenyloxy)phenoxymethyl)benzaldehyde O-(3,3-dichloro-2-propenyl)oxime]	–	–
65.2	O=[N+]([O-])c1ccc(ON=CCCCCOc2c(Cl)cc(OCC=C(Cl)Cl)cc2Cl)c([N+](=O)[O-])c1	–	–
84.8	CCON=Cc1ccc(COc2c(Cl)cc(OCC=C(Cl)Cl)cc2Cl)cc1 [(326), 4-(2,6-dichloro-4-(3,3-dichloro-2-propenyloxy)phenoxymethyl)benzaldehyde O-ethyloxime]	–	–
65.4	CCON=C(C)COc1c(Cl)cc(OCC=C(Cl)Cl)cc1Cl [(30), (2,6-dichloro-4-(3,3-dichloro-2-propenyloxy)phenoxy)acetone O-ethyloxime]	–	–
95.9	CON=Cc1ccc(COc2c(Cl)cc(OCC=C(Cl)Cl)cc2Cl)cc1 [(311), 4-(2,6-dichloro-4-(3,3-dichloro-2-propenyloxy)phenoxymethyl)benzaldehyde O-methyloxime]	–	–
87.9	ClC(Cl)=CCON=CCOc1ccc(COc2c(Cl)cc(OCC=C(Cl)Cl)cc2Cl)cc1 [(360), 2-(4-(2,6-dichloro-4-(3,3-dichloro-2-propenyloxy)phenoxymethyl)phenoxy)acetaldehyde O-(3,3-dichloro-2-propenyl)oxime]	–	–
62.8	ON=CCOCCCCOc1c(Cl)cc(OCC=C(Cl)Cl)cc1Cl [(148), 4-(2,6-dichloro-4-(3,3-dichloro-2-propenyloxy)phenoxy)butyloxyacetaldehyde oxime]	–	–
90.1	ON=Cc1ccc(OCCCCCOc2c(Cl)cc(OCC=C(Cl)Cl)cc2Cl)cc1 [(333), 4-(5-(2,6-dichloro-4-(3,3-dichloro-2-propenyloxy)phenoxy)pentyloxy)benzaldehyde oxime]	–	–
56.1	CCON=C(C)c1ccc(OCCCCCOc2c(Cl)cc(OCC=C(Cl)Cl)cc2Cl)cc1 [(321), 4′-(5-(2,6-dichloro-4-(3,3-dichloro-2-propenyloxy)phenoxy)-pentyloxy)acetophenone O-ethyloxime]	–	–

Source: patent US6437184B1, “Oxime compounds, their use, and intermediates for their production” (Sumitomo Chemical Company, Limited, priority 1997, dated 2002)
